Columns and labels:
[1] = tested on: patients with temporary sleep disturbance; test: Clinical trial: wrist actimetry (SDI, time to sleep onset); format: in vivo, human; design: SDI compared to placebo: dose or concentration left out as unconfirmed
Description: The efficacy of triprolidine in enabling a patient to feel refreshed or alert upon waking after taking triprolidine prior to sleeptime was investigated using patients with a history of sleep disorders and utilising triprolidine prepared in accordance with example 1.
(§1) The study herein utilised the following determination methods:— • (a) Karolinska scale as defined in: Int. J. Neuroscience 52 29-37 (1990); and—validation: Sleep 17 (3) 236-41 (1994) • (b) Loughborough Sleep log as defined in: Sleep 17 (2) 146-159 (1994); and • Sleep 18 (2) 127-134 (1995) • (c) Actimetry—AW4 actimeters (Cambridge Neurotechnology) were worn continuously throughout the study. A button was pressed at night when the subject desired to go to sleep and again in the morning upon waking. The results of the actimeter study were analysed in the manner defined by Horne et al (Sleep, 17(2); 146-159). SDI % was calculated as follows:— SDI=Number of 30 second epochs with movement×100 • Number of 30 second epochs from total time spent in bed This is the measure of: • 1. The length of time it took to fall asleep • 2. Any awakenings throughout the sleep period • Expressed as a % of total time spent in bed. Study Objectives • To evaluate the effects of two doses of triprolidine compared with placebo. Study Design […]
Male and Female candidates aged 18 years and above were recruited to one of five research centres by means of local advertising. […]
In the trial, patients were tested during a seven day period and the results have been analysed for a mean of three days in the middle of this period. […]
(§2) Generally the treatment groups were well balanced in terms of the demographic data. Unless otherwise mentioned all group data was analysed using ANOVA. In two cases, namely, how the patient felt 15 minutes after awakening in the Loughborough Sleep Log and the Karolinska Sleepiness Scale at 20 minutes, the two variables were analysed using ANCOVA by including the weekend and the mean of Friday/Saturday/Sunday night as a covariate. […]

[2] = tested on: patients with temporary sleep disturbance; test: Clinical trial: Loughborough sleep log (subjective); format: in vivo, human; design: dose or concentration left out as unconfirmed; conditions: mean of the 3 nights, p<0.05
Description: as §1
Candidates were required to complete a questionnaire 15 minutes after awaking on the feeling of refreshedness assessed on a 5-point scale, the Loughborough sleep log.
Generally the treatment groups were well balanced in terms of the demographic data. Unless otherwise mentioned all group data was analysed using ANOVA. […]

[3] = tested on: patients with temporary sleep disturbance; test: Clinical trial: Karolinska 9-point sleepiness scale; format: in vivo, human
Description: The study herein utilised the following determination methods:— • (a) Karolinska scale as defined in: Int. J. Neuroscience 52 29-37 (1990); and—validation: Sleep 17 (3) 236-41 (1994) • (b) Loughborough Sleep log as defined in: Sleep 17 (2) 146-159 (1994); and • Sleep 18 (2) 127-134 (1995) • (c) Actimetry—AW4 actimeters (Cambridge Neurotechnology) were worn continuously throughout the study. A button was pressed at night when the subject desired to go to sleep and again in the morning upon waking. The results of the actimeter study were analysed in the manner defined by Horne et al (Sleep, 17(2); 146-159). SDI % was calculated as follows:— SDI=Number of 30 second epochs with movement×100 • Number of 30 second epochs from total time spent in bed This is the measure of: • 1. The length of time it took to fall asleep • 2. Any awakenings throughout the sleep period • Expressed as a % of total time spent in bed. Study Objectives • To evaluate the effects of two doses of triprolidine compared with placebo. Study Design
A multiple-dose, placebo-controlled, parallel-group, double-blind, randomised study investigating the effects of 2.5 mg and 5 mg triprolidine in patients with temporary sleep disturbance.
Male and Female candidates aged 18 years and above were recruited to one of five research centres by means of local advertising. Candidates were screened by means of a telephone questionnaire and selected candidates invited for interview at the research centre. Key inclusion criteria used to select candidates for the study were: • A record of poor sleep at least 2 nights per week • A record of poor sleep for at least 1 week but not more than 3 months • Sleep disturbance not caused by underlying disease • No excess use of alcohol or drugs • Sleep disturbance affected daytime functioning
The candidates came to the research centre on Thursday or Friday and were fitted with a wrist actimeter (AW4 from Cambridge Technology) to establish a baseline measure for SDI and were provided with diary cards to record subjective assessments for the Loughborough Sleep Log and the Karolinska Sleepiness Scale. They returned to the investigational site on the Monday and were issued with the study compositions (2.5 mg triprolidine, 5 mg triprolidine or placebo). […]
as §2

volunteers = conditions: single doses 10 mg or 20 mg sustained release at bedtime; cited from earlier work
[4] = both treatments (2.5 mg and 5 mg), every treatment night
[5] = 2.5 mg triprolidine, mean of the 3 nights

## Cc1ccc(/C(=C\CN2CCCC2)c2ccccn2)cc1 [triprolidine]
[1]; [4]
  SDI as compared with placebo: reduced
  sleep latency onset as compared with placebo: reduced
[1]; triprolidine, mean of the 3 nights, p<0.01
  SDI compared to placebo: significantly reduced
[2]
  feeling of refreshedness 15 minutes after waking vs placebo (Loughborough sleep log): more refreshed
[3]; [5]
  percentage of people feeling alert, very alert or extremely alert on waking vs placebo (Karolinska log): greater percentage
  percentage of people feeling sleepy, some effort, or very sleepy, great effort to keep awake on waking vs placebo (Karolinska log): lower percentage
  residual hangover effects/morning grogginess: no evidence of residual hangover effects/morning grogginess
[3]; either dose of triprolidine
  daytime sleepiness: lack of daytime sleepiness
volunteers
  sleep onset latency (time required to fall asleep) compared with placebo: did not significantly alter
  total sleep time compared with placebo: no effect
  wakefulness during sleep compared with placebo: no effect
